Source: ChEMBL document CHEMBL4622855, “Secondary metabolites from Isodon ternifolius (D. Don) Kudo and their anticancer activity as DNA topoisomerase IB and Tyrosyl-DNA phosphodiesterase 1 inhibitors” (Bioorg Med Chem, 2020)
Active and inactive are the calls of the source. The rule behind the calls is not given here.

Experiments:
[1] = target: T1, DNA topoisomerase I (Bos taurus) (UniProt F1MN93); test: Inhibition of calf thymus Top1 assessed as reduction in supercoiled pBR322 DNA relaxation at 100 uM measured after 30 mins by agarose gel electrophoresis relative to camptothecin
T1 sequence (whole entry): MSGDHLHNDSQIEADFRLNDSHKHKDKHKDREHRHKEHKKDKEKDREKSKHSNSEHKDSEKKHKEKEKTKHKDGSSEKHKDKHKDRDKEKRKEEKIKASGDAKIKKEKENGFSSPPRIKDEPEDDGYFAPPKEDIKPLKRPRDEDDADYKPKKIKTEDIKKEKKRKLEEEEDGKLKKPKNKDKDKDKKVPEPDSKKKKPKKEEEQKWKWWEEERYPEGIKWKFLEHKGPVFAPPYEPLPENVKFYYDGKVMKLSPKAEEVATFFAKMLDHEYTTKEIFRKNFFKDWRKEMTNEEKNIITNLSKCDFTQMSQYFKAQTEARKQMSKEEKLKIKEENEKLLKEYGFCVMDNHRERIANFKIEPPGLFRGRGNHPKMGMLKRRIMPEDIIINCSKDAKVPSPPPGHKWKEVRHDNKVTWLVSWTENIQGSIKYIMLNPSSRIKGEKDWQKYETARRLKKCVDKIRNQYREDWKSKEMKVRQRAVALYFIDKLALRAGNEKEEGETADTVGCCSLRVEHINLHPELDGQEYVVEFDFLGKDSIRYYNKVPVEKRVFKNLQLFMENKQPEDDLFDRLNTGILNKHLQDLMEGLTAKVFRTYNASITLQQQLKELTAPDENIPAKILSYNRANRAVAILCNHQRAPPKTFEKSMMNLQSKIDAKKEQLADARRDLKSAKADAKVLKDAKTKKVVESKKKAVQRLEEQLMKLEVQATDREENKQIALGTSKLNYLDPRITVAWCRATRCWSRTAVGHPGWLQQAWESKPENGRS

[2] = target: Tyrosyl-DNA phosphodiesterase 1 (Homo sapiens, UniProt Q9NUW8); test: Inhibition of TDP1 (unknown origin) expressed in Escherichia coli BL21 (DE3) using 5'-FAM-AGGATCTAAAAGACTT-BHQ-3' as substrate preincubated for 30 mins followed by substrate addition by fluorescence assay
Chain of Tyrosyl-DNA phosphodiesterase 1 (Q9NUW8 whole entry): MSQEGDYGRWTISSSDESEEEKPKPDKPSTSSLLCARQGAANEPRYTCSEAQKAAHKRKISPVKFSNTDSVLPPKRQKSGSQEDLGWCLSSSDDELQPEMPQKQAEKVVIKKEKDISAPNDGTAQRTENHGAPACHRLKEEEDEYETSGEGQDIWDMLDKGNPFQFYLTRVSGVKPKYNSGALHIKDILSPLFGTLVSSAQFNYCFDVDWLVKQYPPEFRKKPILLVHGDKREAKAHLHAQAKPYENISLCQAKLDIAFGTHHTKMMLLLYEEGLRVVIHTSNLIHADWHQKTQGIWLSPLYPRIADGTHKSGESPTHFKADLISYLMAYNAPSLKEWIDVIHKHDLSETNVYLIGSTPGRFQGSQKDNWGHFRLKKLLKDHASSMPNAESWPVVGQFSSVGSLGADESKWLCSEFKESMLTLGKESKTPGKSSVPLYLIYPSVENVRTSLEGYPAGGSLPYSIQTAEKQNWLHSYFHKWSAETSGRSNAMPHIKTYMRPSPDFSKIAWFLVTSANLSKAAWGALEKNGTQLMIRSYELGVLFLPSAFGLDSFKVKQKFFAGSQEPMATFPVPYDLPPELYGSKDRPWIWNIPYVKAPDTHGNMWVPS

[3] = tested on: MCF7; test: Cytotoxicity against human MCF7 cells assessed as reduction in cell viability after 72 hrs by MTT assay; format: functional; conditions: MCF7, 72 h
[4] = tested on: A549; test: Cytotoxicity against human A549 cells assessed as growth inhibition after 72 hrs by MTT assay; format: functional; conditions: A549, 72 h
[5] = tested on: HCT-116; test: Cytotoxicity against human HCT116 cells assessed as growth inhibition after 72 hrs by MTT assay; format: functional; conditions: HCT-116, 72 h
[6] = tested on: MCF7; test: Synergistic antiproliferative activity against human MCF7 cells assessed as combination index at 50 to 100 uM after 72 hrs in presence of TOP1 inhibitor topotecan by MTT assay; format: functional
[7] = tested on: MCF7; test: Induction of DNA damage in human MCF7 cells assessed as increase in gammaH2AX foci formation up to 9 uM measured after 12 hrs by immunofluorescence assay; format: functional, cell-based
[8] = target: T1, DNA topoisomerase I (Bos taurus); test: Inhibition of calf thymus Top1-mediated supercoiled pBR322 DNA cleavage assessed as nicked DNA content at 25 uM measured after 30 mins by ethidium bromide staining agarose gel electrophoresis; set-up: scale not given: the % may be the effect or the level left
[9] = target: T1, DNA topoisomerase I (Bos taurus); test: Inhibition of calf thymus Top1-mediated supercoiled pBR322 DNA cleavage assessed as nicked DNA content at 50 uM measured after 30 mins by ethidium bromide staining agarose gel electrophoresis; set-up: scale not given: the % may be the effect or the level left
[10] = target: T1, DNA topoisomerase I (Bos taurus); test: Inhibition of calf thymus Top1 assessed as reduction in supercoiled pBR322 DNA relaxation measured after 30 mins by agarose gel electrophoresis
[11] = target: T1, DNA topoisomerase I (Bos taurus); test: Inhibition of calf thymus Top1 assessed as reduction in Top1-supercoiled pBR322 DNA covalent cleavage formation at 25 to 50 uM measured after 30 mins by electrophoretic mobility shift assay
[12] = tested on: MCF7; test: Induction of DNA damage in human MCF7 cells assessed as increase in gammaH2AX foci formation at 0.5 uM measured after 12 hrs by immunofluorescence assay; format: functional, cell-based
[13] = tested on: MCF7; test: Synergistic antiproliferative activity against human MCF7 cells assessed as combination index at 12.5 to 50 uM after 72 hrs in presence of TOP1 inhibitor topotecan by MTT assay; format: functional

SMILES | inhibition [1] | IC50 [2] | GI50 [3] | GI50 [4] | GI50 [5] | CI [6] | Activity [7] | Activity [8] | Activity [9] | inhibition [10] | inhibition [11] | Activity [12] | CI [13]
CC1(C)CC[C@]2(C(=O)O)CC[C@]3(C)C(=CC[C@@H]4[C@@]5(C)C[C@H](O)[C@H](O)[C@@](C)(COC(C)(C)O)[C@@H]5CC[C@]43C)[C@@H]2C1 | 60 to 89% | > 100 µM | 11 µM | 37 µM | 55 µM | – | – | – | – | – | – | – | –
O=C(/C=C/c1ccc(O)cc1)c1ccc(O)cc1O [ISOLIQUIRITIGENIN] | 30 to 59% | 55 µM | > 100 µM | 87 µM | 39 µM | <1 | – | – | – | – | – | – | –
C=C1C(=O)O[C@H]2C3=CC[C@@H]4C(C)(C)[C@H](O)CC[C@@]4(C)[C@@H]3CC[C@@H]12 | 30 to 59% | > 100 µM | 53 µM | 35 µM | 35 µM | – | – | – | – | – | – | – | –
CC(C)c1cc2c(cc1O)[C@@]1(C)CCC[C@](C)(CO)[C@@H]1CC2 | 30 to 59% | > 100 µM | 92 µM | 91 µM | 51 µM | – | – | – | – | – | – | – | –
C[C@H]1[C@H](C)CC[C@]2(CO)CC[C@]3(C)C(=CC[C@@H]4[C@@]5(C)CC[C@H](O)C(C)(C)[C@@H]5CC[C@]43C)[C@H]12 [UVAOL] | 30 to 59% | > 100 µM | 93 µM | 45 µM | 37 µM | – | – | – | – | – | – | – | –
C[C@H]1[C@H](C)CC[C@]2(C(=O)O)CC[C@]3(C)C(=CC[C@@H]4[C@@]5(C)CCC(=O)C(C)(C)[C@@H]5CC[C@]43C)[C@H]12 [URSONIC ACID] | > 90% | – | 12 µM | 57 µM | 5.3 µM | – | inactive | 11% | 9% | Dose-dependent effect | Active | – | –
C[C@@H]1CC[C@@]23CC[C@]4(C)[C@@](C=C[C@@H]5[C@@]6(C)CC[C@H](O)C(C)(C)[C@@H]6CC[C@]54C)(OC2=O)C3[C@H]1C (some centres not stated) | 0% | – | > 100 µM | > 100 µM | > 100 µM | – | – | – | – | – | – | – | –
CC(C)c1ccc(O)c2c1CC[C@H]1[C@@](C)(C(=O)O)CCC[C@]21C | 30 to 59% | > 100 µM | 60 µM | 41 µM | 31 µM | – | – | – | – | – | – | – | –
CC1(C)CC[C@]2(C(=O)O)CC[C@]3(C)C(=CC[C@@H]4[C@@]5(C)C[C@@H](O)[C@@H](O)[C@@](C)(CO)[C@@H]5CC[C@]43C)[C@@H]2C1 | 0% | – | > 100 µM | > 100 µM | > 100 µM | – | – | – | – | – | – | – | –
CC1(C)CC[C@]2(C(=O)O)CC[C@]3(C)C(=CC[C@@H]4[C@@]5(C)C[C@@H](O)[C@H](O)[C@](C)(CO)[C@@H]5CC[C@]43C)[C@@H]2C1 | 60 to 89% | – | 14 µM | 22 µM | 29 µM | – | – | – | – | – | – | – | –
C=C1C(=O)O[C@H]2C3=CC[C@@H]4C(C)(C)C(=O)CC[C@@]4(C)[C@@H]3CC[C@@H]12 | 60 to 89% | > 100 µM | 15 µM | 51 µM | 31 µM | – | – | – | – | – | – | – | –
C[C@@H]1CC[C@]2(C(=O)O)CC[C@]3(C)C(=CC[C@@H]4[C@@]5(C)C[C@@H](O)[C@@H](O)C(C)(C)[C@@H]5CC[C@]43C)[C@@H]2[C@]1(C)O [EUSCAPHIC ACID] | > 90% | > 100 µM | 41 µM | 43 µM | 22 µM | – | – | – | – | – | – | – | –
C=C1C(=O)O[C@H]2C3=CC[C@@H]4[C@](C)(CO)CCC[C@@]4(C)[C@@H]3CC[C@@H]12 | 30 to 59% | – | 40 µM | 51 µM | 42 µM | – | – | – | – | – | – | – | –
C[C@@H]1CC[C@]2(C(=O)O)CC[C@]3(C)C(=CC[C@@H]4[C@@]5(C)C[C@@H](O)OCC(C)(C)[C@@H]5CC[C@]43C)[C@@H]2[C@]1(C)O | < 29% | > 100 µM | > 100 µM | > 100 µM | 23 µM | – | – | – | – | – | – | – | –
CC[C@@]1(O)C(=O)OCc2c1cc1n(c2=O)Cc2cc3ccccc3nc2-1 | – | – | – | – | – | – | – | 16% | 18% | – | – | Active | –
CC1(C)CC[C@]2(C(=O)O)CC[C@]3(C)C(=CC[C@@H]4[C@@]5(C)CC[C@H](O)C(C)(C)[C@@H]5CC[C@]43C)[C@@H]2C1 [OLEANOLIC_ACID] | 0% | – | > 100 µM | > 100 µM | > 100 µM | – | – | – | – | – | – | – | –
COc1cc(O)ccc1/C=C/C(=O)c1ccc(O)cc1 [ECHINATIN] | 30 to 59% | 45 µM | 43 µM | 36 µM | 64 µM | – | – | – | – | – | – | – | <0.3
CC1(C)CC[C@]2(C(=O)O)CC[C@]3(C)C(=CC[C@@H]4[C@@]5(C)C[C@@H](O)[C@@H](O)C(C)(C)[C@@H]5CC[C@]43C)[C@@H]2C1 | 30 to 59% | > 100 µM | > 100 µM | > 100 µM | 51 µM | – | – | – | – | – | – | – | –
C=C1C(=O)[C@]23C[C@H]1CC[C@H]2[C@]1(C)CC[C@@H](O)C(C)(C)[C@H]1C[C@@H]3O | 60 to 89% | > 100 µM | 3.5 µM | 4.8 µM | 2.7 µM | – | – | – | – | – | – | – | –
CC(C)c1cc2c(cc1O)[C@]1(C)CCC[C@](C)(C(=O)O)[C@H]1CC2 | 30 to 59% | > 100 µM | 60 µM | 36 µM | 68 µM | – | – | – | – | – | – | – | –
C[C@H]1[C@H](C)CC[C@]2(C(=O)O)CC[C@]3(C)C(=CC[C@@H]4[C@@]5(C)C[C@@H](O)[C@H](O)C(C)(C)[C@@H]5CC[C@]43C)[C@H]12 [COROSOLIC ACID] | < 29% | > 100 µM | 62 µM | > 100 µM | > 100 µM | – | – | – | – | – | – | – | –
CO[C@@H]1C[C@]2(C)[C@H]3CC=C4[C@H]5[C@](C(=O)O)(CC[C@@H](C)[C@@]5(C)O)CC[C@@]4(C)[C@]3(C)CC[C@H]2C(C)(C)CO1 | 30 to 59% | > 100 µM | 31 µM | 63 µM | 37 µM | – | – | – | – | – | – | – | –
COc1cc(/C=C/C(=O)O[C@H]2[C@H](O)C[C@]3(C)[C@H]4CC=C5[C@@H]6CC(C)(C)CC[C@]6(C(=O)O)CC[C@@]5(C)[C@]4(C)CC[C@H]3C2(C)C)ccc1O | > 90% | > 100 µM | 67 µM | 59 µM | 22 µM | – | – | 9% | 10% | Dose-dependent effect | Active | – | –
CC(=O)O[C@H]1CC[C@]2(C)[C@H]3CC=C4[C@@H]5[C@@H](C)[C@H](C)CC[C@]5(C(=O)O)CC[C@@]4(C)[C@]3(C)CC[C@H]2C1(C)C [O-ACETYLURSOLIC ACID] | > 90% | – | 6.5 µM | 48 µM | 21 µM | – | – | – | – | – | – | – | –
CC(C)c1ccc2c(c1O)CC[C@@H]1[C@@](C)(CO)CCC[C@@]21C | 0% | > 100 µM | > 100 µM | > 100 µM | > 100 µM | – | – | – | – | – | – | – | –
CC(=O)O[C@H]1CC[C@]2(C)[C@H]3CC=C4[C@H]5[C@](C(=O)O)(CC[C@@H](C)[C@@]5(C)O)CC[C@@]4(C)[C@]3(C)CC[C@H]2C1(C)C | 0% | > 100 µM | > 100 µM | > 100 µM | > 100 µM | – | – | – | – | – | – | – | –
